The values that follow are results of earlier work, collected in patent US20150217002A1, “NEAR-INFRARED SPECTROSCOPY AND OPTICAL REPORTER” (THE RESEARCH FOUNDATION FOR THE STATE UNIVERSITY OF NEW YORK, priority 2012, published 2015).

The conditions of data set [1]: removed from the circulation system by the liver.
The conditions of data set [2]: in blood excited with 800 nm light, 0.08 mg/L.

`CC1(C)C(/C=C/C=C/C=C/C=C2\N(CCCCS(=O)(=O)O)c3ccc4ccccc4c3C2(C)C)=[N+](CCCCS(=O)(=O)[O-])c2ccc3ccccc3c21` [ICG, indocyanine green]: the in vivo half-life result in data set [1] was “about 3 minutes”. Further, the quantum yield entry in data set [2] is recorded as “about 0.013”.
